{"source": "patent US8598120B2", "about": "(Amylin Pharmaceuticals, LLC, priority 2004, dated 2013)", "key": {"[1]": {"test": "Ethanol-induced gastric mucosal injury (gastroprotection)", "assay_type": "in vivo, rats", "settings": "for ED50 for the gastroprotective effect: s.c.", "method": "Thirty min after gavage, each rat was anesthetized with 5% halothane, the stomach excised, opened along the lesser curvature and everted to expose the mucosa. The everted stomachs were gently rinsed with saline and immediately graded for mucosal damage by each of 10 observers blinded to the experimental treatment.\nStomachs were excised and graded for injury 30 min after ethanol gavage, as described above. The result is provided in the next to the last bar of FIG. 11A.\nStomachs were excised and graded for injury 30 min after ethanol gavage, as described above, and blood was taken for plasma glucose measurement. The injury response was also measured in glucose-treated rats coadministered a 3 mg intravenous bolus of AC187 (n=9)."}, "[2]": {"test": "Ghrelin assay (plasma total and active ghrelin)", "assay_type": "in vivo, rats", "method": "All experiments were performed in the light cycle. Animals were fasted for approximately 20 hours before experimentation. All animals were given free access to water until the start of the experiment. The animals' tails were anesthetized with 20% benzocaine (Hurricaine, Beutlich Pharmaceutical, Waukegan, Ill.), and blood samples were collected from the tail vein. Total and active ghrelin concentrations were measured using Linco RIA kits GHRA-89HK and GHRA-88HK, respectively.\nIn study 1, HSD rats were subjected to periodic blood sampling from the topically anesthetized tail and ghrelin levels were assayed. […] The blood samples were analyzed for total and active (acylated) ghrelin (Linco).\nBlood plasma samples were collected at least at times 0, 10, 20, 30, 60, and 90 min."}, "[3]": {"settings": "in vivo; cited from earlier work"}, "[4]": {"test": "Pentagastrin-stimulated gastric acid secretion in gastric fistula rats", "assay_type": "in vivo", "settings": "for ED50 for the acid-suppressive effect: s.c.", "method": "The experiments were performed during the light cycle. The rats, fed rat chow (Teklad L M 485, Madison, Wis.), were fasted for approximately 20 hours before experimentation. They were given water ad libitum until the start of the experiment.\nThe rats (age 9-14 weeks, body mass 264-395 g) were surgically fitted with double gastric fistulae by the supplier (Zivic Miller, Catalog number SCAO3.00). During laparotomy under halothane anesthesia, a grommet-shaped double lumen plug was sutured into the stomach wall. Two silastic 2.3 mm internal diameter (entry and exit) cannulae connected to the plug and communicating with the gastric lumen were tracked through the abdominal wall, subcutaneously to the interscapular region where they were separately exteriorized. The laparotomy wound was closed with clips, the rat was placed in a heated recovery cage for one day with free access to water. Thereafter, the rats were housed singly with free access to water and rat chow until they were subjected to overnight fasting for experiments which were performed on conscious rats, about 10-15 days after surgery.\nGastric catheters were uncapped and attached to flexible PE240 tubing for injection and sampling. To ensure patency of the catheters, 2-3 mL of saline solution at room temperature was injected and immediately withdrawn from the stomach. This was repeated until flow was easy and the effluent was clean. Gastric acid secretion was measured at 10 min intervals by injecting 5 mL saline and 2 mL air via one catheter, then immediately withdrawing the same via the other catheter. In this way errors due to incomplete aspiration of the small, secreted volume could be minimized. Three mL of each gastric aspirate were titrated to pH 7.0 with 0.01 N sodium hydroxide using a pH meter (Beckman model number PHI34 Fullerton, Calif.). The amount of base required for each titration, corrected for the total volume aspirated, was used to calculate the moles of acid in each sample."}, "[5]": {"settings": "100 μg, one hour after amylin injection"}}}
{"molecule": "O=C[C@H](O)[C@@H](O)[C@H](O)[C@H](O)CO", "note": "[D-glucose]", "values": [{"measurement": "decrease of gastric injury score", "setting": "[1]; 250 mg intraperitoneal, t=−30 min from gavage", "result": "18.5±4.6", "unit": "%"}]}
{"molecule": "KCNTATCATQRLANFLVRSSNNLGPVLPPTNVGSNTY (listed as Rattus sp.) [rat amylin]", "values": [{"measurement": "reduction of active ghrelin (FIG. 8A)", "setting": "[2]; 10 μg s.c. 20 min after pentagastrin […], within 1 hour", "result": "~50", "unit": "%"}, {"measurement": "plasma ghrelin, amylin alone without pentagastrin (FIG. 8B)", "setting": "[2]; 30 μg/kg s.c., no pentagastrin", "result": "plasma ghrelin was reduced compared to the control"}, {"measurement": "total plasma ghrelin compared to saline control (FIGS. 8B, 8C)", "setting": "[2]; 30 μg/kg s.c., with or without pentagastrin", "result": "reduction in total plasma ghrelin"}]}
{"molecule": "Amylin: amylin peptide hormone as summarised from the literature (Table 1, background), species not stated (KCNTATCATQRLANFLVHSSNNFGAILSSTNVGSNTY; Islet amyloid polypeptide; UniProt P10997 34-70, looked up)", "values": [{"measurement": "onset of effect in food intake assays", "setting": "[3]", "result": "≤ 30", "unit": "min"}, {"measurement": "time course of effect in food intake assays", "setting": "[3]", "result": "its effect tapers off after 60 minutes"}, {"measurement": "reduction of injury score", "setting": "[1]; doses of 0.3 μg and higher", "result": 67, "unit": "%"}, {"measurement": "ED50 for the gastroprotective effect", "setting": "[1]", "result": 31, "unit": "pmol/kg"}, {"measurement": "protection of the stomach from mucosal injury (FIG. 11C)", "setting": "[1]; s.c. before ethanol gavage, P<0.05 with doses of 0.1 μg and higher", "result": "dose-dependently protected the stomach from mucosal injury"}, {"measurement": "ED50 for the gastroprotective effect", "setting": "[1]; ±0.40 log units", "result": 0.036, "unit": "µg"}, {"measurement": "rate of acid secretion as % of the basal rate that preceded pentagastrin injection", "setting": "[4]; [5]", "result": 32, "unit": "%"}, {"measurement": "reduction of pentagastrin-stimulated secretion of acid", "setting": "[4]; [5]", "result": "93.4±2.6", "unit": "%"}, {"measurement": "gastric acid production (FIG. 10A)", "setting": "[4]; injected 40 min after pentagastrin, 0.1-100 μg", "result": "dose-dependently inhibited gastric acid production"}, {"measurement": "ED50 for the acid-suppressive effect", "setting": "[4]", "result": 41, "unit": "pmol/kg"}, {"measurement": "ED50 for the acid-suppressive effect", "setting": "[4]; ±0.15 log units", "result": 0.05, "unit": "μg/rat"}]}
{"molecule": "CSNLSTCVLGKLSQELHKLQTYPRTNTGSGTP (listed as Oncorhynchus sp.) [salmon calcitonin]", "values": [{"measurement": "time course of effect in food intake assays", "setting": "[3]", "result": "delayed effect, with peak levels still maintained at 240 minutes"}]}
